Drawing on patent US20240116885A1, “BENZOTHIAZOLE AND QUINOLINE DERIVATIVES AND THEIR USE” (Shanghai Yao Yuan Biotechnology Co., Ltd., priority 2020, published 2024), this text covers IC50 for 24 compounds.

pIC50: −log10 of the molar value.

One assay deals with ALPK1 (Homo sapiens (Human), UniProt Q96QP1). In words: ALPK1 in vitro kinase assay (HTRF, TIFA phosphorylation). Format: biochemical. To be noted: ADP-Heptose activated ALPK1. Here is the method: ALPK1 kinase activity was measured in an in vitro assay using ADP-Heptose as the ALPK1 ligand and activator of its kinase activity and TIFA protein as the ALPK1 phosphorylation substrate. Since phosphorylated TIFA proteins oligomerize, Homogeneous Time-Resolved Fluorescence (HTRF) was used to measure protein:protein interaction between HA-tagged TIFA proteins as an indicator of TIFA phosphorylation.
In brief, dose-response studies were performed with HEK293 cells cultured in Dulbecco's Modified Eagle Medium (DMEM) supplemented 10% fetal bovine serum (FBS, Hyclone™) containing antibiotics (pen/strep, G418) in 384-well assay plates. Each well contained 0.1 mg TIFA, ALPK1 (2 nM final concentration in reaction mixture) and kinase buffer (100 mM of HEPES pH 7.4, 4 mM DTT, 40 mM MgCl2, 20 mM of β-Glycerol phosphate disodium salt, 0.4 mM of Na3VO4, 0.16 mg/mL). Titrations of the test compounds were prepared in dimethylsulphoxide (DMSO). The reaction was initiated by addition of ATP and ADP-Heptose.
For HTRF, samples were incubated with a Tb cryptate-labeled anti-HA antibody for capturing HA-tagged proteins according to the manufacturer's instructions (PerkinElmer™, CisBio™) and the fluorescence signal was quantified (Tecan Infinite F NANO+). HTRF signals were calculated as the HTRF ratio (ratio of fluorescence measured at 665 nm and 620 nm)×104 (thereby using the signal at 620 nm as an internal standard).
IC50 values were determined using 3- or 4-parameter logistic equation using GraphPad Prism version 6.00. The reference compound, A027, was used as a positive control for each plate.
In general terms: Time-resolved FRET reads energy transfer from a long-lived donor to a nearby acceptor.

Assay [1] relates to ALPK1-dependent NFκB reporter gene activation. Kind of assay: NFκB gene reporter alkaline phosphatase assay in HEK293 G9 cells. To be noted: Homo sapiens; HEK293 G9 cells stimulated with D-glycero-D-manno-6-fluoro-heptose-1β-S-ADP. Format: cell-based. On the procedure:
An alkaline phosphatase reporter assay system was used to measure inhibition of ALPK1-dependent NFκB reporter gene activation. Briefly, HEK293 cells stably expressing an NF-kB reporter (referred to herein as “G9 cells”) were maintained in DMEM as described above. For the assay, cells were seeded into 96-well plates at a density of 10,000 cells/well in Freestyle™ 293 Expression Medium (ThermoFisher), and allowed to attach overnight. Cells were pretreated with serially diluted compounds for 30 min and then stimulated with D-glycero-D-manno-6-fluoro-heptose-1β-S-ADP. […] NFkB gene activation was detected using the chromogenic substrate, para-nitrophenyl phosphate (pNPP) according to the manufacturer's protocols (pNPP Phosphatase Assay, Beyotime Biotechnology).

Sequence of ALPK1 (Q96QP1 whole entry): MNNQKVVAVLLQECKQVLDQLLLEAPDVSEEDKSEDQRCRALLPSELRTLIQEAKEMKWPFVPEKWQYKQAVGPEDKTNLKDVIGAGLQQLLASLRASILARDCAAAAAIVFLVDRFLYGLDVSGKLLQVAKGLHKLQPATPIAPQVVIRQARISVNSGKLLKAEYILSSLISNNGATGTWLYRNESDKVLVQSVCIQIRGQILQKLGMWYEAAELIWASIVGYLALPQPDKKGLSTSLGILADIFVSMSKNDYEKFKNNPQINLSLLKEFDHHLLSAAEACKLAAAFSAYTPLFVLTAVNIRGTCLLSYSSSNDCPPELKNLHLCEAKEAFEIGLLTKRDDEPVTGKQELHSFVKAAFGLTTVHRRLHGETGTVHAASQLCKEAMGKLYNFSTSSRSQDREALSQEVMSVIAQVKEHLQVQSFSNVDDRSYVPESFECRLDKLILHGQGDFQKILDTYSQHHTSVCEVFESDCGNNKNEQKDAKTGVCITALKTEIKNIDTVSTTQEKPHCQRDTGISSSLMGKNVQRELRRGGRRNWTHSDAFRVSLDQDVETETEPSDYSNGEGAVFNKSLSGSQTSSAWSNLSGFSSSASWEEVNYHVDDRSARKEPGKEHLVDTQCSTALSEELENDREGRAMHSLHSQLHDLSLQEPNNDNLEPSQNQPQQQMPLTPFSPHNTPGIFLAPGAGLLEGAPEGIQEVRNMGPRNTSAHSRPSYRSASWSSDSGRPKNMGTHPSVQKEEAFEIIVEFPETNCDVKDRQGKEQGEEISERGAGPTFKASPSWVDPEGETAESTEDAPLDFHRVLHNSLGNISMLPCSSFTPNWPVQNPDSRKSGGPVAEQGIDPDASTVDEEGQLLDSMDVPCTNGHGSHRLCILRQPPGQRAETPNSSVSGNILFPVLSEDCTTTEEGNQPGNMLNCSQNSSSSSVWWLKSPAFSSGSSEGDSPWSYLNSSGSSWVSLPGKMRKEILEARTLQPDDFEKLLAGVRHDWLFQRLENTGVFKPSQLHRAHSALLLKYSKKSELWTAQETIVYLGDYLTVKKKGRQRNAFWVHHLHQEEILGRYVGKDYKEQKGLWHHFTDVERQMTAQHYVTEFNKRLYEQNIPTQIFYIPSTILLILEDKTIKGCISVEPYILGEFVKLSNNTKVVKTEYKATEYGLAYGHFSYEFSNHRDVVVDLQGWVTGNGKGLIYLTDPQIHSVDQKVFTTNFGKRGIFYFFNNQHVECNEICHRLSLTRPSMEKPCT

One may read the pIC50 as −log10 of the IC50, conventionally taken in molar units. A lower pIC50 goes with a high IC50. In the case of `COc1cccc2sc(NC(=O)c3c(F)cc(N4CCOCC4)cc3F)nc12` [Compound T022, 2,6-difluoro-N-(4-methoxybenzo[d]thiazol-2-yl)-4-morpholinobenzamide], the pIC50 against ALPK1 is 6.53; in assay [1], 5.70.
As for `COc1cccc2sc(NC(=O)c3c(F)cc(NCCO)cc3F)nc12` [Compound T023, 2,6-difluoro-4-((2-hydroxyethyl)amino)-N-(4-methoxybenzo[d]thiazol-2-yl)benzamide], the negative-log IC50 (pIC50) is 6.54 against ALPK1 and 5.37 in assay [1].
In the same order, the values of `COc1cccc2sc(NC(=O)c3c(F)cc(N4CCN(Cc5ccccc5)C(=O)C4)cc3F)nc12` [Compound T024, 4-(4-benzyl-3-oxopiperazin-1-yl)-2,6-difluoro-N-(4-methoxybenzo[d]thiazol-2-yl)benzamide] are 6.49 and 5.94.
The corresponding values for `COc1cccc2sc(NC(=O)c3c(F)cc(N4CCN(CCO)CC4)cc3F)nc12` [Compound T025, 2,6-difluoro-4-(4-(2-hydroxyethyl)piperazin-1-yl)-N-(4-methoxybenzo[d]thiazol-2-yl)benzamide] are 6.83 and 5.53.
Regarding `COc1cccc2sc(NC(=O)c3c(F)cc(N4CCC(N)C4)cc3F)nc12` (stereo not drawn) [Compound T026, 4-(3-aminopyrrolidin-1-yl)-2,6-difluoro-N-(4-methoxybenzo[d]thiazol-2-yl)benzamide], the pIC50 against ALPK1 was 6.90; in assay [1] it was 5.62.
Regarding `COc1cccc2sc(NC(=O)c3c(F)cc(N4CCC(O)C4)cc3F)nc12` (stereo not drawn) [Compound T027, 2,6-difluoro-4-(3-hydroxypyrrolidin-1-yl)-N-(4-methoxybenzo[d]thiazol-2-yl)benzamide], the pIC50 is 5.93 on ALPK1 and 5.44 in assay [1].
The corresponding values for `COc1cccc2sc(NC(=O)c3c(F)cc(N4CCC(O)CC4)cc3F)nc12` [Compound T028, 2,6-difluoro-4-(4-hydroxypiperidin-1-yl)-N-(4-methoxybenzo[d]thiazol-2-yl)benzamide] are 6.61 and 5.83.
With `COc1cccc2sc(NC(=O)c3c(F)cc(OCCO)cc3F)nc12` [Compound T029, 2,6-difluoro-4-(2-hydroxyethoxy)-N-(4-methoxybenzo[d]thiazol-2-yl)benzamide], the negative logarithm of the IC50 (pIC50) against ALPK1 is 6.25; in assay [1], 5.52.
In the same order, the values of `COc1cc(F)cc2sc(NC(=O)c3c(F)cc(N4CCNCC4)cc3F)nc12` [Compound T030, 2,6-difluoro-N-(6-fluoro-4-methoxybenzo[d]thiazol-2-yl)-4-(piperazin-1-yl)benzamide] are 6.50 and 5.65.
In the case of `O=C(Nc1nc2c(Br)cccc2s1)c1c(F)cc(N2CCNC(CO)C2)cc1F` (stereo not drawn) [Compound T033, N-(4-bromobenzo[d]thiazol-2-yl)-2,6-difluoro-4-(3-(hydroxymethyl)piperazin-1-yl)benzamide], the pIC50 on ALPK1 is 7.42; in assay [1], 5.88.
The corresponding values for `Cc1cc(Cl)cc2sc(NC(=O)c3c(F)cc(N4CCNCC4)cc3F)nc12` [Compound T038, N-(6-chloro-4-methylbenzo[d]thiazol-2-yl)-2,6-difluoro-4-(piperazin-1-yl)benzamide] are 6.59 and 5.00.
For the compound `COc1cccc2sc(NC(=O)c3c(F)cc(C(=O)N4CCNCC4)cc3F)nc12` [Compound T040, 2,6-difluoro-N-(4-methoxybenzo[d]thiazol-2-yl)-4-(piperazine-1-carbonyl)benzamide], the pIC50 was 6.47 at ALPK1 and 5.20 in assay [1].
In the same order, the values of `COc1cc(Cl)cc2sc(NC(=O)c3c(F)cc(N4CCNCC4)cc3F)nc12` [Compound T043, N-(6-chloro-4-methoxybenzo[d]thiazol-2-yl)-2,6-difluoro-4-(piperazin-1-yl)benzamide] are 6.40 and 5.40.
For `CN1CCN(c2cc(F)c(C(=O)Nc3nc4c(Br)cccc4s3)c(F)c2)CC1` [Compound T044, N-(4-bromobenzo[d]thiazol-2-yl)-2,6-difluoro-4-(4-methylpiperazin-1-yl)benzamide], the figures for the pIC50 (against ALPK1; in assay [1]) were 7.89 and 5.96, respectively.
The corresponding values for `O=C(Nc1nc2c(O)cccc2s1)c1c(F)cc(N2CCNCC2)cc1F` [Compound T045, 2,6-difluoro-N-(4-hydroxybenzo[d]thiazol-2-yl)-4-(piperazin-1-yl)benzamide] are 5.78 and 5.38.
Consider `O=C(Nc1nc2c(Cl)cccc2s1)c1c(F)cc(N2CCNCC2)cc1F` [Compound T046, N-(4-chlorobenzo[d]thiazol-2-yl)-2,6-difluoro-4-(piperazin-1-yl)benzamide], for which the results for the pIC50 (on ALPK1; in assay [1]) were 7.25 and 5.88, respectively.
Turning to `C#Cc1cccc2sc(NC(=O)c3c(Cl)cc(N4CCNCC4)cc3Cl)nc12` [Compound T048, 2,6-dichloro-N-(4-ethynylbenzo[d]thiazol-2-yl)-4-(piperazin-1-yl)benzamide], the figures for the pIC50 (against ALPK1; in assay [1]) were 8.05 and 5.15, respectively.
For the compound `CC#Cc1cccc2sc(NC(=O)c3c(F)cc(N4CCNCC4)cc3F)nc12` [Compound T049, 2,6-difluoro-4-(piperazin-1-yl)-N-(4-(prop-1-yn-1-yl)benzo[d]thiazol-2-yl)benzamide], the pIC50 against ALPK1 was 7.37; in assay [1] it was 5.68.
In the same order, the values of `C#Cc1cccc2sc(NC(=O)c3c(C)cc(N4CCNCC4)cc3F)nc12` [Compound T050, N-(4-ethynylbenzo[d]thiazol-2-yl)-2-fluoro-6-methyl-4-(piperazin-1-yl)benzamide] are 7.01 and 6.02.
In the same order, the values of `C#Cc1cccc2sc(NC(=O)c3c(F)cc(N4CCNCC4C(C)C)cc3F)nc12` (stereo not drawn) [Compound T051, N-(4-ethynylbenzo[d]thiazol-2-yl)-2,6-difluoro-4-(2-isopropylpiperazin-1-yl)benzamide] are 7.25 and 5.80.
In the same order, the values of `C#Cc1cccc2sc(NC(=O)c3c(F)cc(N4CCNCC4CC)cc3F)nc12` (stereo not drawn) [Compound T052, 4-(2-ethylpiperazin-1-yl)-N-(4-ethynylbenzo[d]thiazol-2-yl)-2,6-difluorobenzamide] are 7.24 and 5.88.
Consider `C#Cc1cccc2sc(NC(=O)c3c(F)cc(N4CC[C@@H](N)C4)cc3F)nc12` [Compound T053, (R)-4-(3-aminopyrrolidin-1-yl)-N-(4-ethynylbenzo[d]thiazol-2-yl)-2,6-difluorobenzamide], for which the pIC50 was 7.08 against ALPK1 and 6.05 in assay [1].
In the same order, the values of `C#Cc1cccc2sc(NC(=O)c3c(F)cc(N4CCN(C(N)=O)CC4)cc3F)nc12` [Compound T055, 4-(4-((4-ethynylbenzo[d]thiazol-2-yl)carbamoyl)-3,5-difluorophenyl)piperazine-1-carboxamide] are 6.90 and 5.67.
In the case of `C#Cc1cccc2sc(NC(=O)c3c(F)cc(N4CCNCC4C)cc3F)nc12` (stereo not drawn) [Compound T059, N-(4-ethynylbenzo[d]thiazol-2-yl)-2,6-difluoro-4-(2-methylpiperazin-1-yl)benzamide], the values for the pIC50 (against ALPK1; in assay [1]) were 7.37 and 6.26, respectively.
